ChEMBL document CHEMBL4804281, “STK4 inhibitors for treatment of hematologic malignancies” (2020)

Tests used:
Format in all cases: cell-based
[1] = biological target: T1, Kinase suppressor of Ras 2 (Homo sapiens) (UniProt Q6VAB6); assay: Inhibition of KSR2 in human NCI-H929 cells at 10 uM by mass spectroscopic analysis relative to control
T1 sequence (whole entry): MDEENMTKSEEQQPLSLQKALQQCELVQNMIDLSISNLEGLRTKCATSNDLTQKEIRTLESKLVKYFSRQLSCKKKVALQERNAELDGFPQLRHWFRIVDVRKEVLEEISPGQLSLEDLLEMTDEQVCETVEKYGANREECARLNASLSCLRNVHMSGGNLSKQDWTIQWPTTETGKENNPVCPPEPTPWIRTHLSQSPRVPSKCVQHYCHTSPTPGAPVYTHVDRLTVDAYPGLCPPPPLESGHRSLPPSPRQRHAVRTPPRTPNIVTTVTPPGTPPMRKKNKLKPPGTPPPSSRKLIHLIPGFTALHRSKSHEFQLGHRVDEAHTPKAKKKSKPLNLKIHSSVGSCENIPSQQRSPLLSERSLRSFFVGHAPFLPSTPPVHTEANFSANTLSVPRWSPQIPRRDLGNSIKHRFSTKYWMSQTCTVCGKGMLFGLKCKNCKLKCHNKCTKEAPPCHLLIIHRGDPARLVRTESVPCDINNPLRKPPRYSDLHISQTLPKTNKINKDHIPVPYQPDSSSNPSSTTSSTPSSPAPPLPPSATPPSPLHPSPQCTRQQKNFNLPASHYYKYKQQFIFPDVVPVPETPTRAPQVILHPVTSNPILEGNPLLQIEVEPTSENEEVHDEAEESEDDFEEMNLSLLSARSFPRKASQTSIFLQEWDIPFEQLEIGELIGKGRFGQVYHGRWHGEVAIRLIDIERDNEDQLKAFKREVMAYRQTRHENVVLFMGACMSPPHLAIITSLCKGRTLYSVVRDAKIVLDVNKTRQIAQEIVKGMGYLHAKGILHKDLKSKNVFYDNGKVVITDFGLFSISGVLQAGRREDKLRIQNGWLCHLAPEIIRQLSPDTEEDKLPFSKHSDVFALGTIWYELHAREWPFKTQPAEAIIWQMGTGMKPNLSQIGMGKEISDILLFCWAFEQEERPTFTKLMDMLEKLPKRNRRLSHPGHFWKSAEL

[2] = biological target: MAP kinase-activated protein kinase 3 (Homo sapiens) (UniProt Q16644); assay: Inhibition of MAPKAPK3 in human NCI-H929 cells at 10 uM by mass spectroscopic analysis relative to control
[3] = biological target: Serine/threonine-protein kinase 26 (Homo sapiens) (UniProt Q9P289); assay: Inhibition of MST4 in human NCI-H929 cells at 10 uM by mass spectroscopic analysis relative to control
[4] = biological target: Mitogen-activated protein kinase 8 (Homo sapiens) (UniProt P45983); assay: Inhibition of JNK1 in human NCI-H929 cells at 10 uM by mass spectroscopic analysis relative to control
[5] = biological target: T2, Mitogen-activated protein kinase 13 (Homo sapiens) (UniProt O15264); assay: Inhibition of P38delta in human NCI-H929 cells at 10 uM by mass spectroscopic analysis relative to control
T2 sequence (whole entry): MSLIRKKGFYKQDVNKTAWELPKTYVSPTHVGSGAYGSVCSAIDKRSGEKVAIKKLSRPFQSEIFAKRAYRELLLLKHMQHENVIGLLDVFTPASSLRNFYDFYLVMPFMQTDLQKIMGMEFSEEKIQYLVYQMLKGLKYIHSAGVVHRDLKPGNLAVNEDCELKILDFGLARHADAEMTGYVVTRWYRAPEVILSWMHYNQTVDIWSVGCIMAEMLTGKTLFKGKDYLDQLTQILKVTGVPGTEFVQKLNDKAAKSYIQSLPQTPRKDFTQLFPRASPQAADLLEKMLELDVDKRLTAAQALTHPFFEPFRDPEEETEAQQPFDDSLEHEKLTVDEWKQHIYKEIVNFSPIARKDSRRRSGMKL

[6] = biological target: Ribosomal protein S6 kinase alpha-2 (Homo sapiens) (UniProt Q15349); assay: Inhibition of RSK3 domain 1 in human NCI-H929 cells at 10 uM by mass spectroscopic analysis relative to control
[7] = biological target: Putative phosphatidylinositol 4-kinase alpha-like protein P2 (Homo sapiens) (UniProt A4QPH2); assay: Inhibition of PI4KAP2 in human NCI-H929 cells at 10 uM by mass spectroscopic analysis relative to control
[8] = biological target: Serine/threonine-protein kinase WNK2 (Homo sapiens) (UniProt Q9Y3S1); assay: Inhibition of WNK2 in human NCI-H929 cells at 10 uM by mass spectroscopic analysis relative to control
[9] = biological target: Tyrosine-protein kinase Fyn (Homo sapiens) (UniProt P06241); assay: Inhibition of FYN in human NCI-H929 cells at 10 uM by mass spectroscopic analysis relative to control
[10] = biological target: T3, Mitogen-activated protein kinase 12 (Homo sapiens) (UniProt P53778); assay: Inhibition of P38gamma in human NCI-H929 cells at 10 uM by mass spectroscopic analysis relative to control
T3 sequence (whole entry): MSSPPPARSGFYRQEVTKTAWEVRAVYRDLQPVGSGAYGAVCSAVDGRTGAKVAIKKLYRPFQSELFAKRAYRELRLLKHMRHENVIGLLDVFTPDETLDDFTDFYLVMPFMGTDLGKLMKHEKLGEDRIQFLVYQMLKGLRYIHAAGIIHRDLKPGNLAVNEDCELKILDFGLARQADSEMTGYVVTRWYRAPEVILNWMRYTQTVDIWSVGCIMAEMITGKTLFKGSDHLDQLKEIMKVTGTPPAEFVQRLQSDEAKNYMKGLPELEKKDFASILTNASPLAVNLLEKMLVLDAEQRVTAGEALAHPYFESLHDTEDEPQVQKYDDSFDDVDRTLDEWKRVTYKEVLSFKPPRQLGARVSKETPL

[11] = biological target: Phosphatidylinositol 4-kinase alpha (Homo sapiens) (UniProt P42356); assay: Inhibition of PI4KA in human NCI-H929 cells at 10 uM by mass spectroscopic analysis relative to control
Sequence of Phosphatidylinositol 4-kinase alpha (Homo sapiens) (P42356 whole entry, looked up): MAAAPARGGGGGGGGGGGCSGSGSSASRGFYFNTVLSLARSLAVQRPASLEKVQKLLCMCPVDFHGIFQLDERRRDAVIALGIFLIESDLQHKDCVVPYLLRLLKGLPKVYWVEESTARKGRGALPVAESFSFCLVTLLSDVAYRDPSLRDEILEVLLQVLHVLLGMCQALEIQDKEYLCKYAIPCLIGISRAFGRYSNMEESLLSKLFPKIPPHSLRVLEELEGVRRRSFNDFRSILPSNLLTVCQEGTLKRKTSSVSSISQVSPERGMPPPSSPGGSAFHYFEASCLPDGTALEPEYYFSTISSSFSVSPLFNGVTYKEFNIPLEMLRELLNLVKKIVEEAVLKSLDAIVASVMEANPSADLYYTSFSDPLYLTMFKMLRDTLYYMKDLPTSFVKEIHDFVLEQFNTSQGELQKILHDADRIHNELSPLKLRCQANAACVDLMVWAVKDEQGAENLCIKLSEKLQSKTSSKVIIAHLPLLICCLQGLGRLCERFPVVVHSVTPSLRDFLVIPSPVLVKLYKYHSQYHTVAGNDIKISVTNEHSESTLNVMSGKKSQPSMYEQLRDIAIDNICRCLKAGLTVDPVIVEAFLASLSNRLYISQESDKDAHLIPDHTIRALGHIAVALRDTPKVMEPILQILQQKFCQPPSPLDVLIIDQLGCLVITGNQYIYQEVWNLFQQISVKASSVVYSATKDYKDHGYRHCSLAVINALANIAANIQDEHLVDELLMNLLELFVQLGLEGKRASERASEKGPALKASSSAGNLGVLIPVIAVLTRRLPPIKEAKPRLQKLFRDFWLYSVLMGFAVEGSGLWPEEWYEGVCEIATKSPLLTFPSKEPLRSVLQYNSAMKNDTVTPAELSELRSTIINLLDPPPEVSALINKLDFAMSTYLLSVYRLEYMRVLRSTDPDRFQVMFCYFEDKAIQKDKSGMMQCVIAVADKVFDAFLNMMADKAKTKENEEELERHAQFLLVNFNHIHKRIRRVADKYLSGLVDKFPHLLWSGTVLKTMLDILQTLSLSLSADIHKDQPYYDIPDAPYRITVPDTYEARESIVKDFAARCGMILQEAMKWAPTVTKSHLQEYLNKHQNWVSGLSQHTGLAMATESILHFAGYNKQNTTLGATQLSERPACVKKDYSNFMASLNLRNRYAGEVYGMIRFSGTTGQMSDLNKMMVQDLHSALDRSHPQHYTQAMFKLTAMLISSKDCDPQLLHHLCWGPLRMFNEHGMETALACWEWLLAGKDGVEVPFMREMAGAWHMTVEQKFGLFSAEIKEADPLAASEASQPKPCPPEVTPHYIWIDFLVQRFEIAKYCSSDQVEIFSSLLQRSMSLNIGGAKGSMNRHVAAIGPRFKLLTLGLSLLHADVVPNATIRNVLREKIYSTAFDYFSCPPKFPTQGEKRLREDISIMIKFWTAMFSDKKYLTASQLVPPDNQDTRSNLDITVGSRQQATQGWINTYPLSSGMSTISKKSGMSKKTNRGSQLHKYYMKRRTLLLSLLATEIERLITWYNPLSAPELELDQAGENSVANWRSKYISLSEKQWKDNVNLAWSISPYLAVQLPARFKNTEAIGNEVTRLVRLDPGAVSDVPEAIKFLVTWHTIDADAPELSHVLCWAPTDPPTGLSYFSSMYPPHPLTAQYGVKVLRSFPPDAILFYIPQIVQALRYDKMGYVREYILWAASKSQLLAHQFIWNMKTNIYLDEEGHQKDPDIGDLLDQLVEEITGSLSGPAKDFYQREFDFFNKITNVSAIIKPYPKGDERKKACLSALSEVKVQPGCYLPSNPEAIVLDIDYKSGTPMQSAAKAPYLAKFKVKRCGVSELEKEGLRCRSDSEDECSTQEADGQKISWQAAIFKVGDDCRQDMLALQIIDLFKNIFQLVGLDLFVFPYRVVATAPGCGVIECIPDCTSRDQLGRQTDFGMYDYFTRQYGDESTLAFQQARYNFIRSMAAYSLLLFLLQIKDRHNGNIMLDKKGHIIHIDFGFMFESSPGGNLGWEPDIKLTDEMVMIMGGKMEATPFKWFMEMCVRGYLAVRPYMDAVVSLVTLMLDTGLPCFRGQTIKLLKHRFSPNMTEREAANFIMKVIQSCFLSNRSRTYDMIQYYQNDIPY

Sequence of Mitogen-activated protein kinase 8 (Homo sapiens) (P45983 whole entry): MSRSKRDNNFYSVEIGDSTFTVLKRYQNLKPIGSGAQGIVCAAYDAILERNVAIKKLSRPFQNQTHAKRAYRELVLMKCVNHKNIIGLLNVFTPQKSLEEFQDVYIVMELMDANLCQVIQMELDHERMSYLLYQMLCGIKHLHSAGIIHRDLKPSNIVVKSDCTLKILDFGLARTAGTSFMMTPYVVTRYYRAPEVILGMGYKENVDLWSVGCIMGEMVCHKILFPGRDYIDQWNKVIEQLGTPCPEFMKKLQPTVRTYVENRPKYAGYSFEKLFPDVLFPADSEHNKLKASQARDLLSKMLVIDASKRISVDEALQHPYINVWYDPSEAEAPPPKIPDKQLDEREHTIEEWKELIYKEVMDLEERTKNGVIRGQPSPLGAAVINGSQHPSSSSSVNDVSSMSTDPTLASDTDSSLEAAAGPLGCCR
Sequence of Tyrosine-protein kinase Fyn (Homo sapiens) (P06241 2-537 limits assumed): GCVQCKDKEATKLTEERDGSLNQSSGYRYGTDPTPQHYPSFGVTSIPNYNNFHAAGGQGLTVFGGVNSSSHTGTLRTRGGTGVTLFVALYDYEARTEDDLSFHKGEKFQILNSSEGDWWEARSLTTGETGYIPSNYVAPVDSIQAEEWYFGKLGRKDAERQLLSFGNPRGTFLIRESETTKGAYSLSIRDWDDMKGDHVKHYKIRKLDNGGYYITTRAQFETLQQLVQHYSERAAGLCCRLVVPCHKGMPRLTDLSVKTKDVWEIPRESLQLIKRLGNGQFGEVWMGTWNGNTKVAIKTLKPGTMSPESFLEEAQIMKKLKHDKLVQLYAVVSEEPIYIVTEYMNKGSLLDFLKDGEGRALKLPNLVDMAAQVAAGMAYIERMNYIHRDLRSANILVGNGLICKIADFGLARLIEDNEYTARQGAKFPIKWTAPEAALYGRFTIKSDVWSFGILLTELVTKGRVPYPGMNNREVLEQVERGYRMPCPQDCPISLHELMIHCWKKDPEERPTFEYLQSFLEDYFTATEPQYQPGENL
Sequence of Ribosomal protein S6 kinase alpha-2 (Homo sapiens) (Q15349 whole entry, the tested form may be a part): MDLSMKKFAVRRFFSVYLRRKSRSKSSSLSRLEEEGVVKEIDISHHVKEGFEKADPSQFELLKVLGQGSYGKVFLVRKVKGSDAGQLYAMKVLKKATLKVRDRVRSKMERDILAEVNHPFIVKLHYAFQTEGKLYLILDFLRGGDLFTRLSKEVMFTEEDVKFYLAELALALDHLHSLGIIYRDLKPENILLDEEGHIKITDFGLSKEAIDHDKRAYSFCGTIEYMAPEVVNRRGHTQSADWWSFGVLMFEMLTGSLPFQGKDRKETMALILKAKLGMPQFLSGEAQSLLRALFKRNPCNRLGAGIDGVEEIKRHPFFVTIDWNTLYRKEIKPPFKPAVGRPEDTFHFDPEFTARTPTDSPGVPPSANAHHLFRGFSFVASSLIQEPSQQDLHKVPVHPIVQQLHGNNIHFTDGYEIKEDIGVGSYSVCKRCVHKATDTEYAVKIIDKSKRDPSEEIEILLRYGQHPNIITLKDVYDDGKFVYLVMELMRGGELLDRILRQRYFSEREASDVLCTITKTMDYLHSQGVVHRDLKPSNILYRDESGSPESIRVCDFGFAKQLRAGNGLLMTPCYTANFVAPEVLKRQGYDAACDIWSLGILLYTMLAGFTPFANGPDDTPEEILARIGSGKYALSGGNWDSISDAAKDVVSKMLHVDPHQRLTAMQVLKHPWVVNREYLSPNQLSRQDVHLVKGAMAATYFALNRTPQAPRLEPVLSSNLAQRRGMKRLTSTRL
Sequence of Serine/threonine-protein kinase 26 (Homo sapiens) (Q9P289 2-416 limits assumed): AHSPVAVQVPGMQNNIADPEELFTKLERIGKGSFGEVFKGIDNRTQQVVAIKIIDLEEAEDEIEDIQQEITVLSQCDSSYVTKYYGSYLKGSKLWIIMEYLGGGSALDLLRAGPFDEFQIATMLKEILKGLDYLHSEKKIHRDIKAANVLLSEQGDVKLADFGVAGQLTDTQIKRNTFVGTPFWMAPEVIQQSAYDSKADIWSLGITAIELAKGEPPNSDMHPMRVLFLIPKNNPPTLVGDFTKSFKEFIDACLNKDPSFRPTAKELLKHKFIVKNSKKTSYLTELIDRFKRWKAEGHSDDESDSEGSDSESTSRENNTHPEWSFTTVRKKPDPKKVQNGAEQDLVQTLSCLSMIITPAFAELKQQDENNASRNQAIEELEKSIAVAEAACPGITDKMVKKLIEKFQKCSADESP
Sequence of Putative phosphatidylinositol 4-kinase alpha-like protein P2 (Homo sapiens) (A4QPH2 whole entry): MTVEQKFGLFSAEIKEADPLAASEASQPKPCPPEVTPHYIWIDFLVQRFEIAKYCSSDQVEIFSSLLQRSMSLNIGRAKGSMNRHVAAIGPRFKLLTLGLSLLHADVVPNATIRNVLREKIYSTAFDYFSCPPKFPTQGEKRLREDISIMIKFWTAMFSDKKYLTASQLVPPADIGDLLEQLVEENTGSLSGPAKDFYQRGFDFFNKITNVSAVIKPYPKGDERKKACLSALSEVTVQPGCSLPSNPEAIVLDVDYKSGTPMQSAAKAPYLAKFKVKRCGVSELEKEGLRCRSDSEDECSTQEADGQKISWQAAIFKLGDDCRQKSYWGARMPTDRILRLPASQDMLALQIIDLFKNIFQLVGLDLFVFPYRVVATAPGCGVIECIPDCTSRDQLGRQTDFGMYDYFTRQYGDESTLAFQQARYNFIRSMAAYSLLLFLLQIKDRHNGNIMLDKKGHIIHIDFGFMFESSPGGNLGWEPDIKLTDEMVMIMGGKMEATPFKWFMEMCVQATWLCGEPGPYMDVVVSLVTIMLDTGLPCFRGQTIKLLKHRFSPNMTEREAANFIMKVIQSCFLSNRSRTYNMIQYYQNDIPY

inhibition [1] [%]	inhibition [2] [%]	inhibition [3] [%]	inhibition [4] [%]	inhibition [5] [%]	inhibition [6] [%]	inhibition [7] [%]	inhibition [8] [%]	inhibition [9] [%]	inhibition [10] [%]	inhibition [11] [%]	SMILES
0	0	< 90	0	0	0	0	0	0	0	0	CN(C1CC1)S(=O)(=O)c1ccc(-c2cnc(N)c(-c3ccc4c(c3)CCNC4=O)c2)c(F)c1
0	0	0	0	0	0	0	0	0	0	0	Nc1ncc(-c2cccc3ncsc23)cc1-c1ccc2c(c1)CCNC2=O

More lines, now with the values behind:

SMILES	inhibition [1] [%]	inhibition [2] [%]	inhibition [3] [%]	inhibition [4] [%]	inhibition [5] [%]	inhibition [6] [%]	inhibition [7] [%]	inhibition [8] [%]	inhibition [9] [%]	inhibition [10] [%]	inhibition [11] [%]
COc1cc(NS(=O)(=O)C2CC2)ccc1-c1cnc(N)c(-c2ccc3c(c2)CCNC3=O)c1	0	0	–	0	0	0	0	0	0	0	0
Nc1ncc(-c2ccc(NS(=O)(=O)C3CC3)cc2F)cc1-c1ccc2c(c1)CCNC2=O	0	0	< 75	0	0	0	0	0	0	0	0
Nc1ncc(-c2ccc(NS(=O)(=O)C3CC3)cc2OC2CCCCC2)cc1-c1ccc2c(c1)CCNC2=O	0	0	–	0	0	50	0	0	0	0	0
Nc1ncc(-c2cccc([N+](=O)[O-])c2F)cc1-c1ccc2c(c1)CCNC2=O	0	0	0	0	0	–	0	> 100	0	0	0
